# Data: PubChem BioAssay AID330 (DTP/NCI, 2004)
# Values joined by “and” are separate entries in the source; they are usually repeats but may differ in a detail not shown here. Equal values may be shown once. Toxic doses and inconclusive results are not listed.
# Test system: P388 leukemia ip, CD2F1 mice, survival T/C
# Experiment: NCI In Vivo Anticancer Drug Screen. Data for tumor model P388 Leukemia (intraperitoneal) in CD2F1 (CDF1) mice
# Conditions: endpoint: median survival time, higher = longer survival
# How it was run: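 Mice carrying the transplanted tumor received test compound or vehicle. Survival was recorded in each group, and the value is the treated-group measurement divided by that of the vehicle-treated control group.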
# [1] = dose: 25.0 mg/kg/injection, schedule: Q01DX009 (ip), vehicle: saline with Tween-80
# [2] = dose: 50.0 mg/kg/injection, schedule: Q01DX009 (ip), vehicle: saline with Tween-80
# [3] = dose: 5.0 mg/kg/injection, schedule: Q01DX009 (ip), vehicle: saline with Tween-80
# [4] = dose: 10.0 mg/kg/injection, schedule: Q01DX009 (ip), vehicle: saline with Tween-80
# [5] = dose: 60.0 mg/kg/injection, schedule: Q01DX005 (ip), vehicle: Klucel (hydroxypropylcellulose) (HPC)
# [6] = dose: 120.0 mg/kg/injection, schedule: Q01DX005 (ip), vehicle: Klucel (hydroxypropylcellulose) (HPC)
# [7] = dose: 240.0 mg/kg/injection, schedule: Q01DX005 (ip), vehicle: Klucel (hydroxypropylcellulose) (HPC)
# [8] = dose: 50.0 mg/kg/injection, schedule: Q01DX009 (ip), vehicle: saline
# [9] = dose: 100.0 mg/kg/injection, schedule: Q01DX009 (ip), vehicle: saline
# [10] = dose: 200.0 mg/kg/injection, schedule: Q01DX009 (ip), vehicle: saline
# [11] = dose: 60.0 mg/kg/injection, schedule: Q01DX005 (ip), vehicle: saline with Tween-80
# [12] = dose: 120.0 mg/kg/injection, schedule: Q01DX005 (ip), vehicle: saline with Tween-80
# [13] = dose: 240.0 mg/kg/injection, schedule: Q01DX005 (ip), vehicle: saline with Tween-80
compound,measurement,setting,value
CCN(CC)[P+](C1=C(Cl)C(=O)C(C#N)=C(C#N)C1=O)(N(CC)CC)N(CC)CC,T/C,"dose: 3.1 mg/kg/injection, schedule: Q01DX009 (ip), vehicle: saline with Tween-80",108 % of control
same,T/C,"dose: 6.25 mg/kg/injection, schedule: Q01DX009 (ip), vehicle: saline with Tween-80",99 % of control
same,T/C,"dose: 12.5 mg/kg/injection, schedule: Q01DX009 (ip), vehicle: saline with Tween-80",99 % of control
same,T/C,[1],87 % of control
same,T/C,[2],101 % of control
CNC(=S)N/N=C\C(C)=N/N1CCCCCC1,T/C,"dose: 100.0 mg/kg/injection, schedule: Q04DX002 (ip), vehicle: saline",97 % of control
same,T/C,"dose: 200.0 mg/kg/injection, schedule: Q04DX002 (ip), vehicle: saline",101 % of control
same,T/C,"dose: 400.0 mg/kg/injection, schedule: Q04DX002 (ip), vehicle: saline",93 % of control
CC1(C)N=C(N)N=C(N)N1c1cccc(Cl)c1Cl,T/C,[3],100 % of control
same,T/C,"dose: 5.0 mg/kg/injection, schedule: Q04DX003 (ip), vehicle: saline",95 % of control
same,T/C,[4],108 % of control
same,T/C,"dose: 10.0 mg/kg/injection, schedule: Q04DX003 (ip), vehicle: saline",95 % of control
same,T/C,"dose: 20.0 mg/kg/injection, schedule: Q01DX009 (ip), vehicle: saline with Tween-80",121 % of control
same,T/C,"dose: 20.0 mg/kg/injection, schedule: Q04DX003 (ip), vehicle: saline",116 % of control
COc1cc(C2c3cc4c(cc3OC3(N5CCCC5)CCCCC23)OCO4)cc(OC)c1OC (configuration not stated),T/C,[5],99 % of control
same,T/C,[6],93 % of control
same,T/C,[7],96 % of control
Cc1ccc(NC(=O)OCCN(C)C(=O)Nc2ccc(C)cc2C)c(C)c1,T/C,"dose: 30.0 mg/kg/injection, schedule: Q01DX005 (ip), vehicle: Klucel (hydroxypropylcellulose) (HPC)",98 % of control
same,T/C,[5],103 % of control and 94 % of control
same,T/C,[6],98 % of control
same,T/C,[7],86 % of control
O=C(Cl)c1ccccc1Sc1ccccc1,T/C,[1],95 % of control
same,T/C,"dose: 25.0 mg/kg/injection, schedule: Q04DX003 (ip), vehicle: saline with Tween-80",100 % of control
same,T/C,[2],90 % of control
same,T/C,"dose: 50.0 mg/kg/injection, schedule: Q04DX003 (ip), vehicle: saline with Tween-80",100 % of control
same,T/C,"dose: 100.0 mg/kg/injection, schedule: Q01DX009 (ip), vehicle: saline with Tween-80",100 % of control
same,T/C,"dose: 100.0 mg/kg/injection, schedule: Q04DX003 (ip), vehicle: saline with Tween-80",100 % of control
COc1cc2cc(c1Cl)N(C)C(=O)CC(OC(=O)C(C)N(C)C(=O)C(C)C)C1(C)OC1C(C)C1CC(O)(NC(=O)O1)C(OC)/C=C/C=C(C)C2 (configuration not stated),T/C,"dose: 0.1 micrograms/kg/injection, schedule: Q01DX009 (ip), vehicle: saline",105 % of control
same,T/C,"dose: 0.2 micrograms/kg/injection, schedule: Q01DX009 (ip), vehicle: saline",115 % of control
same,T/C,"dose: 3.1 micrograms/kg/injection, schedule: Q01DX009 (ip), vehicle: saline + alcohol",157 % of control
same,T/C,"dose: 3.1 micrograms/kg/injection, schedule: Q01DX009 (ip), vehicle: saline",150 % of control
same,T/C,"dose: 6.3 micrograms/kg/injection, schedule: Q01DX009 (ip), vehicle: saline + alcohol",167 % of control
same,T/C,"dose: 6.3 micrograms/kg/injection, schedule: Q01DX009 (ip), vehicle: saline",161 % of control
same,T/C,"dose: 12.5 micrograms/kg/injection, schedule: Q01DX009 (ip), vehicle: saline + alcohol",150 % of control
CC1CN2CCOC2(C)O1 (configuration not stated),T/C,"dose: 60.0 mg/kg/injection, schedule: Q01DX005 (ip), vehicle: saline",106 % of control
same,T/C,"dose: 120.0 mg/kg/injection, schedule: Q01DX005 (ip), vehicle: saline",102 % of control
same,T/C,"dose: 240.0 mg/kg/injection, schedule: Q01DX005 (ip), vehicle: saline",101 % of control
CC(=O)N1C=CC(=C2C=CN(C(C)=O)C=C2)C=C1,T/C,"dose: 5.0 mg/kg/injection, schedule: Q01DX009 (ip), vehicle: saline",100 % of control
same,T/C,"dose: 10.0 mg/kg/injection, schedule: Q01DX009 (ip), vehicle: saline",88 % of control
same,T/C,"dose: 20.0 mg/kg/injection, schedule: Q01DX009 (ip), vehicle: saline",103 % of control
O=c1cccc[nH]1,T/C,[8],104 % of control and 112 % of control and 121 % of control
same,T/C,[9],107 % of control and 109 % of control and 110 % of control
same,T/C,[10],104 % of control and 105 % of control and 118 % of control
same,T/C,"dose: 400.0 mg/kg/injection, schedule: Q01DX009 (ip), vehicle: saline",108 % of control and 96 % of control
same,T/C,"dose: 600.0 mg/kg/injection, schedule: Q01DX009 (ip), vehicle: saline",121 % of control
Cc1ccc(NC(=O)c2cc3ccccc3cc2O)c(C)c1.Cc1ccc(NC(=O)c2cc3ccccc3cc2O)c(C)c1.[Fe+2],T/C,[8],92 % of control
same,T/C,[9],104 % of control
same,T/C,[10],90 % of control
CSc1cc(=O)n2c3ccccc3c3ccnc1c32,T/C,"dose: 2.5 mg/kg/injection, schedule: Q01DX009 (ip), vehicle: saline with Tween-80",100 % of control and 120 % of control
same,T/C,[3],116 % of control
same,T/C,[4],156 % of control
CN(C)c1ncnc2c1ccn2C1OC(CO)C(O)C1O (configuration not stated),T/C,"dose: 6.25 mg/kg/injection, schedule: Q01DX005 (ip), vehicle: Klucel (hydroxypropylcellulose) (HPC)",106 % of control
same,T/C,"dose: 12.5 mg/kg/injection, schedule: Q01DX005 (ip), vehicle: Klucel (hydroxypropylcellulose) (HPC)",109 % of control
same,T/C,"dose: 25.0 mg/kg/injection, schedule: Q01DX005 (ip), vehicle: Klucel (hydroxypropylcellulose) (HPC)",117 % of control
O/N=C/c1ccc(Cl)cc1Cl,T/C,"dose: 25.0 mg/kg/injection, schedule: Q01DX005 (ip), vehicle: saline with Tween-80",98 % of control
same,T/C,"dose: 50.0 mg/kg/injection, schedule: Q01DX005 (ip), vehicle: saline with Tween-80",107 % of control
same,T/C,"dose: 100.0 mg/kg/injection, schedule: Q01DX005 (ip), vehicle: saline with Tween-80",92 % of control
same,T/C,"dose: 200.0 mg/kg/injection, schedule: Q01DX005 (ip), vehicle: saline with Tween-80",96 % of control
CN=C(N)N/N=C(\C)c1ccc2c(c1)Cc1cc(Br)ccc1-2,T/C,"dose: 6.25 mg/kg/injection, schedule: Q04DX002 (ip), vehicle: saline with Tween-80",102 % of control
same,T/C,"dose: 12.5 mg/kg/injection, schedule: Q04DX002 (ip), vehicle: saline with Tween-80",105 % of control
same,T/C,"dose: 25.0 mg/kg/injection, schedule: Q04DX002 (ip), vehicle: saline with Tween-80",105 % of control and 124 % of control
same,T/C,"dose: 50.0 mg/kg/injection, schedule: Q04DX002 (ip), vehicle: saline with Tween-80",98 % of control and 101 % of control
O=C(O)c1ccc(NC(=S)NC(=O)c2cccc(Br)c2)cc1,T/C,[11],91 % of control
same,T/C,[12],86 % of control
C[N+]1(C[Si](C)(C)c2ccccc2)CCCCC1,T/C,"dose: 12.5 mg/kg/injection, schedule: Q01DX005 (ip), vehicle: saline",104 % of control
same,T/C,"dose: 25.0 mg/kg/injection, schedule: Q01DX005 (ip), vehicle: saline",100 % of control
same,T/C,"dose: 50.0 mg/kg/injection, schedule: Q01DX005 (ip), vehicle: saline",101 % of control and 105 % of control
CCn1c2ccccc2c2cc(/C=N/N=C/c3ccc4c(c3)c3ccccc3n4CC)ccc21,T/C,"dose: 3.12 mg/kg/injection, schedule: Q01DX005 (ip), vehicle: saline with Tween-80",93 % of control
same,T/C,"dose: 6.25 mg/kg/injection, schedule: Q01DX005 (ip), vehicle: saline with Tween-80",90 % of control
same,T/C,"dose: 12.5 mg/kg/injection, schedule: Q01DX005 (ip), vehicle: saline with Tween-80",88 % of control
CC(=O)CCS(=O)Cc1ccccc1 (configuration not stated),T/C,[11],103 % of control
same,T/C,[12],98 % of control
same,T/C,[13],111 % of control
O=C(O)COC(=O)c1ccc([N+](=O)[O-])cc1,T/C,"dose: 100.0 mg/kg/injection, schedule: Q04DX003 (ip), vehicle: Klucel (hydroxypropylcellulose) (HPC)",99 % of control
same,T/C,"dose: 200.0 mg/kg/injection, schedule: Q04DX003 (ip), vehicle: Klucel (hydroxypropylcellulose) (HPC)",108 % of control
same,T/C,"dose: 400.0 mg/kg/injection, schedule: Q04DX003 (ip), vehicle: Klucel (hydroxypropylcellulose) (HPC)",100 % of control
Cc1cccc(C)c1NC(=O)CCC(=O)CC(=O)c1ccncc1,T/C,[11],103 % of control
same,T/C,[12],105 % of control
same,T/C,[13],101 % of control
N#CC1C(=O)NC(=S)NC1c1ccccc1 (configuration not stated),T/C,"dose: 50.0 mg/kg/injection, schedule: Q01DX009 (ip), vehicle: Klucel (hydroxypropylcellulose) (HPC)",95 % of control
same,T/C,"dose: 100.0 mg/kg/injection, schedule: Q01DX009 (ip), vehicle: Klucel (hydroxypropylcellulose) (HPC)",101 % of control
same,T/C,"dose: 200.0 mg/kg/injection, schedule: Q01DX009 (ip), vehicle: Klucel (hydroxypropylcellulose) (HPC)",98 % of control
